Experimental data from ChEMBL document CHEMBL1909046, “DrugMatrix in vitro pharmacology data”.

What was measured:
[1] = biological target: 5-hydroxytryptamine receptor 2B (Homo sapiens, UniProt P41595); type: cell membranes, CHO-K1, Membrane; settings: for Ki: read-out: Ki; for all read-outs here: in other assays of this panel Not Active means under 50% inhibition at 10 µM
[2] = biological target: T1, 5-hydroxytryptamine receptor 2C (Homo sapiens, UniProt P28335); test: DRUGMATRIX: Serotonin (5-Hydroxytryptamine) 5-HT2C radioligand binding (ligand: [3H] Mesulergine); type: cell membranes, CHO-K1, Membrane; settings: Not Active = under 50% inhibition at 10 µM; for Ki: read-out: Ki
T1 sequence (P28335 whole entry): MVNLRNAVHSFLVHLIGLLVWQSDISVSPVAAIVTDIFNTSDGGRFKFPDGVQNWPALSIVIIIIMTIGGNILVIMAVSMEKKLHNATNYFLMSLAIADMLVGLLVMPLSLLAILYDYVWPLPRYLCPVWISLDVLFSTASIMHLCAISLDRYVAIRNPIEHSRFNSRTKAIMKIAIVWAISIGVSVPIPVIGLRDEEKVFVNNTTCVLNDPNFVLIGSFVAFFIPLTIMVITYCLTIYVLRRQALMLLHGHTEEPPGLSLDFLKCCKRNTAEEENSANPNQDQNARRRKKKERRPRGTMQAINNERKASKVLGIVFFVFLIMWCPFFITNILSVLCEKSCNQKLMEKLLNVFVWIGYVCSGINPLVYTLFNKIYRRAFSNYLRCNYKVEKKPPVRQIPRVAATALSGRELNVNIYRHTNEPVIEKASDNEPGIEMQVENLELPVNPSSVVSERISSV

[3] = biological target: 5-hydroxytryptamine receptor 4 (Cavia porcellus, UniProt O70528); type: cell membranes, Dunkin-Hartley, Striatum, Membrane; note: in other assays of this panel Not Active means under 50% inhibition at 10 µM
[4] = biological target: T2, Vasoactive intestinal polypeptide receptor 1 (Homo sapiens, UniProt P32241); type: cell membranes, Membrane; settings: ht-29; note: in other assays of this panel Not Active means under 50% inhibition at 10 µM
T2 sequence (P32241 whole entry): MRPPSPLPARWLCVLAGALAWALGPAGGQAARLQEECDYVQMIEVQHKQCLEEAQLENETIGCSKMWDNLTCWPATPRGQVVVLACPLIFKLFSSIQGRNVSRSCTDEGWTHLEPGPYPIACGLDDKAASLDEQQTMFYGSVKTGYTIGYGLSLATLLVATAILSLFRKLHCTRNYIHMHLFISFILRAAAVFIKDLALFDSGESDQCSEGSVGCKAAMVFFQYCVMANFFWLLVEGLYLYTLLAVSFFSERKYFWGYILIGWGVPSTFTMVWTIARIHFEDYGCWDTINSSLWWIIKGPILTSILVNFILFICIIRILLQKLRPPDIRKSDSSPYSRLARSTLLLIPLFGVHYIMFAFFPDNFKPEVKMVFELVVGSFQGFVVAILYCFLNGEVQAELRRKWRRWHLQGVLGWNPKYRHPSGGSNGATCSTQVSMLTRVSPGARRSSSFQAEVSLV

Progesterone receptor = biological target: T3, Progesterone receptor (Bos taurus, UniProt Q690N0); test: DRUGMATRIX: Progesterone radioligand binding (ligand: [3H] R-5020); type: tissue-based, Uterus; settings: Not Active = under 50% inhibition at 10 µM; for Ki: read-out: Ki
T3 sequence (Q690N0 whole entry): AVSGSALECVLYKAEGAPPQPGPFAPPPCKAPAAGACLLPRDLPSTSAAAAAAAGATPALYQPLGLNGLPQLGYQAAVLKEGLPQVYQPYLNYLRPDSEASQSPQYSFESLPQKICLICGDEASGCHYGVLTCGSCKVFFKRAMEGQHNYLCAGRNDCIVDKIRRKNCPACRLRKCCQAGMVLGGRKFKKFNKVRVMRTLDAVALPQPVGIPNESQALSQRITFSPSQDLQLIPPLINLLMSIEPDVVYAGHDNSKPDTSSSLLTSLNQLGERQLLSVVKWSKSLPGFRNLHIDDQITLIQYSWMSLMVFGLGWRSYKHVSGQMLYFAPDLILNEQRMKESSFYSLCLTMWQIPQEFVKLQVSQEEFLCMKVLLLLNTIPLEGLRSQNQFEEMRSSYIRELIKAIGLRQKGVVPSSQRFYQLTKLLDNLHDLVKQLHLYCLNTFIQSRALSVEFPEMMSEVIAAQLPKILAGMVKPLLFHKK

Cytochrome P450 2A6 = biological target: T4, Cytochrome P450 2A6 (Homo sapiens, UniProt P11509); settings: bti-tn-5b1-4; note: in other assays of this panel Not Active means under 50% inhibition at 10 µM
T4 sequence (P11509 whole entry): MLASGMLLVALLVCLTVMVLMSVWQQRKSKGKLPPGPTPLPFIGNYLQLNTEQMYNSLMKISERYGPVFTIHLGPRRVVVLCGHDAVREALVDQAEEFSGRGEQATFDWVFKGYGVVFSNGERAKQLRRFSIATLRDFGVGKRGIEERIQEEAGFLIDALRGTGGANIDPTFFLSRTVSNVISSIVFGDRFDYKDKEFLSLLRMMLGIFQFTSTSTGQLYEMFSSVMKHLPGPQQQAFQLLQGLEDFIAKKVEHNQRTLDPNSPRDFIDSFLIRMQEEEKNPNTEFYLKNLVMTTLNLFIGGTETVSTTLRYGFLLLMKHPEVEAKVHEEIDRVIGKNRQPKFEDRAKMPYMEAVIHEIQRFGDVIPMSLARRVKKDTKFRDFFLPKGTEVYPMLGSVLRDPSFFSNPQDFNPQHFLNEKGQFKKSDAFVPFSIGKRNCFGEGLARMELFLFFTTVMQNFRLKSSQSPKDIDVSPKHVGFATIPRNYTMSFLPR

5-hydroxytryptamine receptor 2B, sequence (P41595 whole entry): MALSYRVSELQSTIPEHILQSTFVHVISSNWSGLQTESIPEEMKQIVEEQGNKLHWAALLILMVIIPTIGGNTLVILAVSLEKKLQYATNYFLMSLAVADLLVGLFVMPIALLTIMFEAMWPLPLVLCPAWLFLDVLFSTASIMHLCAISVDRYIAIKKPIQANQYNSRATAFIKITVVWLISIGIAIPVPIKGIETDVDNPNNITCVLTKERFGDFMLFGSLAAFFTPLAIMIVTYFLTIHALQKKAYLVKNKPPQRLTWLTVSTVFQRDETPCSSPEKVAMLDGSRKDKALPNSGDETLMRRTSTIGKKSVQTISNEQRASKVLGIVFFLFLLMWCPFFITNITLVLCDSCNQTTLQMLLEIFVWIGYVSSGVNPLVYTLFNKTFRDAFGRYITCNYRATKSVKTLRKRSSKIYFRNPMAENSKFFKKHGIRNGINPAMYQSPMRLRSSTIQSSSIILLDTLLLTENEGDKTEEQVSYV
5-hydroxytryptamine receptor 4, sequence (O70528 whole entry): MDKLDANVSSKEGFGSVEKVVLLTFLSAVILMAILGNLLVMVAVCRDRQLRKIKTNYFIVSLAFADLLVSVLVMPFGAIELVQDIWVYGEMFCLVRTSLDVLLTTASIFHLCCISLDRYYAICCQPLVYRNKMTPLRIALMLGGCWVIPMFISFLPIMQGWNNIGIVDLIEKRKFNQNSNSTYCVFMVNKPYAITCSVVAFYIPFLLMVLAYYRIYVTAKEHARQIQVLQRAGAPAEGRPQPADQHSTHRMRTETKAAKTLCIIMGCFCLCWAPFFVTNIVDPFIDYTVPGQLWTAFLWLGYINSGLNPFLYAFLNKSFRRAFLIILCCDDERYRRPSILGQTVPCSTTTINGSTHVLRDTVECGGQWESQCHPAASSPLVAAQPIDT

| Structure (SMILES) | IC50 ([1]; cho-k1) | IC50 ([2]; cho-k1) | IC50 [3] | IC50 [4] | IC50 (Progesterone receptor) | IC50 (Cytochrome P450 2A6) | Ki (Cytochrome P450 2A6) | IC50 ([1]; read-out: IC50) | Ki [1] | IC50 (Progesterone receptor; read-out: IC50) | Ki (Progesterone receptor) | IC50 ([2]; read-out: IC50) | Ki [2] |
| --- | --- | --- | --- | --- | --- | --- | --- | --- | --- | --- | --- | --- | --- |
| O=C(O)CCNC(=O)c1ccccc1 [BETAMIPRON] | Not Active | Not Active | Not Active | Not Active | Not Active | Not Active | Not Active | – | – | – | – | – | – |
| CC(=O)Oc1ccc(C(c2ccc(OC(C)=O)cc2)c2ccccn2)cc1 [BISACODYL] | Not Active | Not Active | Not Active | Not Active | Not Active | Not Active | Not Active | – | – | – | – | – | – |
| Cc1cc2c(OCC(CNC(C)(C)C)OC(=O)c3ccccc3)cccc2[nH]1 (configuration not stated) [BOPINDOLOL] | – | Not Active | Not Active | Not Active | Not Active | Not Active | Not Active | 1520 nM | 969 nM | – | – | – | – |
| Brc1c(NC2=NCCN2)ccc2nccnc12 [BRIMONIDINE] | Not Active | Not Active | Not Active | Not Active | Not Active | Not Active | Not Active | – | – | – | – | – | – |
| CN(C)[C@@H]1C(O)=C(C(N)=O)C(=O)[C@@]2(O)C(O)=C3C(=O)c4c(O)ccc(Cl)c4[C@@](C)(O)[C@H]3C[C@@H]12 [CHLORTETRACYCLINE] | Not Active | Not Active | Not Active | Not Active | Not Active | Not Active | Not Active | – | – | – | – | – | – |
| CN/C(=N\CCSCc1nc[nH]c1C)NC#N [CIMETIDINE] | Not Active | Not Active | Not Active | Not Active | Not Active | Not Active | Not Active | – | – | – | – | – | – |
| CCC(=O)O[C@]1(C(=O)CCl)[C@@H](C)C[C@H]2[C@@H]3CCC4=CC(=O)C=C[C@]4(C)[C@@]3(F)[C@@H](O)C[C@@]21C [CLOBETASOL PROPIONATE] | Not Active | Not Active | Not Active | Not Active | – | Not Active | Not Active | – | – | 12 nM | 1.52 nM | – | – |
| O=C1CN=C(c2ccccc2Cl)c2cc([N+](=O)[O-])ccc2N1 [CLONAZEPAM] | Not Active | Not Active | Not Active | Not Active | Not Active | Not Active | Not Active | – | – | – | – | – | – |
| Nc1ccn([C@@H]2O[C@H](CO)[C@@H](O)[C@@H]2O)c(=O)n1 [CYTARABINE] | Not Active | Not Active | Not Active | Not Active | Not Active | Not Active | Not Active | – | – | – | – | – | – |
| C[C@@H]1C[C@H]2[C@@H]3CCC4=CC(=O)C=C[C@]4(C)[C@@]3(F)[C@@H](O)C[C@]2(C)[C@H]1C(=O)CO [DESOXIMETASONE] | Not Active | Not Active | Not Active | Not Active | – | Not Active | Not Active | – | – | 84 nM | 11 nM | – | – |
| C[C@@H]1C[C@H]2[C@@H]3CCC4=CC(=O)C=C[C@]4(C)[C@@]3(F)[C@@H](O)C[C@]2(C)[C@@]1(O)C(=O)CO [DEXAMETHASONE] | Not Active | Not Active | Not Active | Not Active | – | Not Active | Not Active | – | – | 23300 nM | 3040 nM | – | – |
| CN(C)CC[C@@H](c1ccc(Cl)cc1)c1ccccn1 [DEXCHLORPHENIRAMINE] | Not Active | – | Not Active | Not Active | Not Active | Not Active | Not Active | – | – | – | – | 2320 nM | 1220 nM |
| C[C@@H]1CC[C@@]2(OC1)O[C@H]1[C@@H](O)[C@H]3[C@@H]4CC[C@H]5C[C@@H](O[C@@H]6O[C@H](CO)[C@H](O[C@@H]7O[C@H](CO)C(O)[C@H](O[C@@H]8OC[C@@H](O)[C@H](O)[C@H]8O)[C@H]7O[C@@H]7O[C@H](CO)[C@H](O)[C@H](O[C@@H]8O[C@H](CO)[C@@H](O)[C@H](O)[C@H]8O)[C@H]7O)[C@H](O)[C@H]6O)[C@H](O)C[C@]5(C)[C@H]4CC[C@]3(C)[C@H]1[C@@H]2C (some centres not stated) [DIGITONIN] | Not Active | Not Active | Not Active | Not Active | Not Active | Not Active | Not Active | – | – | – | – | – | – |
| OC(CCCN1CCCCC1)(c1ccccc1)c1ccccc1 [DIPHENIDOL] | Not Active | Not Active | Not Active | Not Active | Not Active | Not Active | Not Active | – | – | – | – | – | – |
| C[C@H]1O[C@@H](n2cc(F)c(=O)[nH]c2=O)[C@H](O)[C@@H]1O [DOXIFLURIDINE] | Not Active | Not Active | Not Active | Not Active | Not Active | Not Active | Not Active | – | – | – | – | – | – |
| Cn1c(=O)c2c(ncn2CC(O)CO)n(C)c1=O (configuration not stated) [DYPHYLLINE] | Not Active | Not Active | Not Active | Not Active | Not Active | Not Active | Not Active | – | – | – | – | – | – |
| CC[C@H]1CN2CCc3cc(OC)c(OC)cc3[C@@H]2C[C@@H]1C[C@H]1NCCc2cc(OC)c(OC)cc21 [EMETINE] | Not Active | Not Active | Not Active | Not Active | Not Active | Not Active | Not Active | – | – | – | – | – | – |
| C[C@@H](CO)NC(=O)[C@@H]1C=C2c3cccc4[nH]cc(c34)C[C@H]2N(C)C1 [ERGONOVINE] | – | – | Not Active | Not Active | Not Active | Not Active | Not Active | 4.14 nM | 2.63 nM | – | – | 21 nM | 11 nM |
| COC(=O)CCc1ccc(OCC(O)CNC(C)C)cc1 (configuration not stated) [ESMOLOL] | Not Active | Not Active | Not Active | Not Active | Not Active | Not Active | Not Active | – | – | – | – | – | – |
| CCC1(C)CC(=O)NC1=O (configuration not stated) [ETHOSUXIMIDE] | Not Active | Not Active | Not Active | Not Active | Not Active | Not Active | Not Active | – | – | – | – | – | – |
| C#C[C@]1(OC(C)=O)CC[C@H]2[C@@H]3CCC4=C[C@@H](OC(C)=O)CC[C@@H]4[C@H]3CC[C@@]21C [ETHYNODIOL DIACETATE] | Not Active | Not Active | Not Active | Not Active | – | Not Active | Not Active | – | – | 160 nM | 21 nM | – | – |
| C=CCc1ccc(O)c(OC)c1 [EUGENOL] | Not Active | Not Active | Not Active | Not Active | Not Active | Not Active | Not Active | – | – | – | – | – | – |
